Patent US12351574B2, “Selective ligands for modulation of GIRK channels” (Northeastern University, priority 2018, dated 2025)
“Also recorded” adds a separate entry of the source.

How the values were obtained:
[1] = target: T1, GIRK1/4 (Homo sapiens, UniProt P48544+P48549); test: two-electrode voltage clamp (TEVC) in Xenopus oocytes expressing GIRK1/4 wild-type; assay type: cell-based; parameters: expressed in transfected cells; host or cells: Xenopus laevis oocytes (cRNA injection); conditions: for Emax: ML297 considered 100%, read-out: EMAX at GIRK1/4, % relative to ML297; for EC50: TEVC, Xenopus oocytes, GIRK1/4 wild-type; for activation of GIRK1/4 (in words): concentration-response, FIGS. 34A-34I; for EMAX at GIRK1/4: current normalized to basal current; for modulation of GIRK1/4 channels (in words): Examples 5 and 6, Xenopus oocytes
T1 sequence (P48549 1-501): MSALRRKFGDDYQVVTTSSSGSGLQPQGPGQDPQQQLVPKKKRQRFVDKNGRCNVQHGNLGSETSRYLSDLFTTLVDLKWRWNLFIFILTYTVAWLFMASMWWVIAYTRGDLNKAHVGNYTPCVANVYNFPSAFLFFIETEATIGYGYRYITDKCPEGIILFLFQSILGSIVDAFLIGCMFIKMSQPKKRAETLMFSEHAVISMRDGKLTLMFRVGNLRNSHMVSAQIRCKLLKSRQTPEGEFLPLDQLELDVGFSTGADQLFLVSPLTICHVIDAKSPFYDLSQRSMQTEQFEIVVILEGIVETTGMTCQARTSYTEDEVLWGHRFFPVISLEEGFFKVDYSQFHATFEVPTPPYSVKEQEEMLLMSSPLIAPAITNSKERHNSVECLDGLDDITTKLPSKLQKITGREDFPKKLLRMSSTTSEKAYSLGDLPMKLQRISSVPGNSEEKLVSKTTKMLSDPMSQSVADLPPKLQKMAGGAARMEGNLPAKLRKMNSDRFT
T1 sequence (P48544 1-419): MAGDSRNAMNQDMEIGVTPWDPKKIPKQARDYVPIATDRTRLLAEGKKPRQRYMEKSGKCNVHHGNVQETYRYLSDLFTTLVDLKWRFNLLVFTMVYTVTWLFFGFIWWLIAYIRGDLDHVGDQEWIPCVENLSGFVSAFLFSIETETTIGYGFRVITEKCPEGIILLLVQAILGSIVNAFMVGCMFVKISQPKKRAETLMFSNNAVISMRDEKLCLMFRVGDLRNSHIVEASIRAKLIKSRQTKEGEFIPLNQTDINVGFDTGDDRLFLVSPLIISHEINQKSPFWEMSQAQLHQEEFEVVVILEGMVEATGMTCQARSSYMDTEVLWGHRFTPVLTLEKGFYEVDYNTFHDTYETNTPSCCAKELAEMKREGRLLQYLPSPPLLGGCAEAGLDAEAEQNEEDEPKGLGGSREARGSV
Source text: (§1) Molecular biology: For Xenopus oocyte expression, human GIRK1 and human GIRK4 cDNAs were subcloned into pGEMHE. For mammalian expression, human GIRK1 and human GIRK4 cDNAs were subcloned into pcDNA3 and pcDNA3.1/V5-His B, respectively (Invitrogen). Mouse GIRK2 cDNA was subcloned in the dual-function vector, pXoom. Point mutations were introduced using a standard Pfu-based mutagenesis technique according to the QuikChange protocol (Agilent). Mutations were verified by sequencing.
(§2) Xenopus laevis oocyte expression: Plasmid DNAs of GIRK channel subunits were linearized prior to in vitro transcription. Capped RNAs were transcribed using mMESSAGE mMACHINE T7 Transcription Kit (Thermo Fisher Scientific). Xenopus oocytes were surgically extracted, dissociated and defolliculated by collagenase treatment, and microinjected with 50 nl of a water solution containing 1 ng of each GIRK subunit RNA. For TEVC experiments, oocytes were kept 2 days at 17° C. before recording, while for NPo experiments oocytes were incubated for up to 4 days at 17° C.
(§3) Xenopus laevis oocyte expression: All cDNA constructs in the pGEMHE vector were linearized using the NheI restriction enzyme, whereas those in the pXoom vector were linearized using the XhoI restriction enzyme. Linearized cDNAs were in vitro-transcribed using the mMessage mMachine® kit (Ambion) kit. Complementary RNA (cRNA) concentrations were quantified by optical density. Xenopus oocytes were surgically extracted, dissociated, and defolliculated by collagenase treatment and microinjected with 50 nl of the desired cRNAs diluted in RNAase-free water. The use of Xenopus laevis frogs for this study was approved by the Institutional Animal Care and Use Committee (IACUC) at Northeastern University. All constructs used in this study were injected to achieve between 1-2 ng per oocyte depending on the channel. Oocytes were incubated for 2 days at 18° C.
(§4) Electrophysiology of oocytes: Whole-oocyte currents were measured by conventional two-electrode voltage clamp (TEVC) with a GeneClamp 500 amplifier (Axon Instruments). […] Barium-sensitive currents were normalized to average basal current in the vehicle solutions. The HK solution contained the following: 96 mM KCl, 1 mM NaCl, 1 mM MgCl2, 5 mM KOH/HEPES, pH 7.4. The barium solution consisted of HK+10 mM BaCl2. Five to ten oocytes from the same batch (same frog) were recorded for each group, and the experiments were repeated in at least four batches. Data acquisition and analysis were carried out using pClamp9 (Molecular Devices) and OriginPro (Microcal) software.

[2] = target: T2, GIRK1/2 (UniProt P48542+P48549); test: two-electrode voltage clamp (TEVC) in Xenopus oocytes expressing GIRK1/2 wild-type; assay type: cell-based, human GIRK1, mouse GIRK2; parameters: expressed in transfected cells; host or cells: Xenopus laevis oocytes (cRNA injection); conditions: for Emax: ML297 considered 100%, read-out: EMAX at GIRK1/2, % relative to ML297; for EC50 / selectivity for GIRK1/2 over GIRK1/4 (in words): TEVC; for EC50: Xenopus oocytes, GIRK1/2 wild-type; for activation of GIRK1/2 (in words) / potency/efficacy compared to GAT1508 (in words): concentration-response, FIGS. 34A-34I; for EMAX at GIRK1/2: current normalized to basal current; for selectivity for GIRK1/2 over GIRK1/4 (in words): GIRK1/2 versus GIRK1/4
T2 sequence (P48549 1-501): T1 sequence (P48549 1-501)
T2 sequence (P48542 1-425): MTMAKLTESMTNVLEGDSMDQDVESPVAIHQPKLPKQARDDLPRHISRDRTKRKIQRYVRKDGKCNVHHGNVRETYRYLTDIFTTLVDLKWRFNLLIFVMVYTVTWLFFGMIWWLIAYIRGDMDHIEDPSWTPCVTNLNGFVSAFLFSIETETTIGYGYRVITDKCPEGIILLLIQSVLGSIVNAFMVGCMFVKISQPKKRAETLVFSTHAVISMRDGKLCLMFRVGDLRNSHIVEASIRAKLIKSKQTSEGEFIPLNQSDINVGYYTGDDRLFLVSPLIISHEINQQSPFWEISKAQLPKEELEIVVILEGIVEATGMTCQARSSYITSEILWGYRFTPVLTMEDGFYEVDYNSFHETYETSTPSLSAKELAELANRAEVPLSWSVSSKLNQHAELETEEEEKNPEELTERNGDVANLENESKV
Source text: as §1, §2, §3, §4

[3] = test system: BLA neurons (GIRK currents); test: whole-cell patch-clamp in acute brain slices, basolateral amygdala (BLA) neurons; assay type: cell-based, rat; conditions: 100 ms puff of 100 μM, compared to baseline
Description: Electrophysiological recordings from brain slices containing basolateral amygdala (BLA) neurons: Electrophysiology was performed using 150-200 g male Sprague-Dawley rats (Harlan/Envigo, Indianapolis, IN). Rats were group housed in plastic cages in standard housing conditions with ad libitum access to food and water with 12:12 light/dark cycle (lights on at 07:00 h). All experiments were conducted in accordance with the Guide for the Care and Use of Laboratory Animals (Institute for Laboratory Animal Research, The National Academies Press) and the guidelines of the IUPUI Institutional Animal Care and Use Committee. Rats were anesthetized with isoflurane and immediately decapitated. Brains were then rapidly removed, placed in ice-cold oxygenated artificial cerebrospinal fluid solution (ACSF) and coronal slices ([…]) were prepared containing the amygdala. Slices were incubated at 31° C. for 30 min and then returned to room temperature until recording. [ACSF solution in mM: 130 NaCl; 3.5 KCl; 1.1 KH2PO4; 1.3 MgCl2; 2.5 CaCl2; 30 NaHCO3; 10 glucose, 315 mOsm, 7.4 pH]. Cells were identified for recording at 40× magnification using Scientifica Slicescope microscope under DIC illumination (Scientifica, Uckfield, UK). ACSF was warmed to 30° C. and perfused at a rate of 2-3 ml/min during recordings. Compounds were added to ACSF at desired concentrations. Whole-cell patch-clamp recordings were obtained using standard techniques. Borosilicate glass electrodes (WPI, Sarasota, FL) (resistance 3-6 MΩ) were prepared and used for both recording and baclofen application. [Recording internal solution in mM: 140 K-gluconate; 2 KCl; 3 MgCl2; 10 HEPES; 5 Phosphocreatinine; 2 K-ATP; 0.2 Na-GTP, 290 mOsm, 7.4 pH]. In voltage-clamp mode, the cell was adjusted to −50 mV at the beginning of all experiments and 5 min stable baseline was established before treatment. Picospritzer II (Parker Hannifin, Hollis, NH) was utilized for local application of 100 μM GABA-B agonist baclofen in ACSF to activate GIRKs. Baseline and baclofen-induced currents were averaged from three responses per cell and analyzed using ClampFit software (Molecular Devices, San Jose, CA). […] Several control cells were subjected to baclofen at 2 min intervals for 30 min and consistent responses were observed, thus ruling out time-dependent effects.
The inventors employed whole-cell patch-clamp recording in acute brain slices to examine the effect of GAT1508. The inventors utilized brain slices that included the basolateral amygdala (BLA), a limbic structure that has been extensively described to coordinate the acquisition and expression of fear memories. […] Next, the inventors examined the response of BLA neurons to baclofen, a GABAB-receptor agonist that induces GIRK-mediated potassium currents. […]

| Emax [1] | EC50 [1] | EMAX at GIRK1/4 [1] | Emax [2] | EC50 [2] | EMAX at GIRK1/2 [2] | selectivity for GIRK1/2 over GIRK1/4 (in words) [2] | potency/efficacy compared to GAT1508 (in words) [2] | SMILES | activation of GIRK1/4 (in words) [1] | activation of GIRK1/2 (in words) [2] | further results |
| --- | --- | --- | --- | --- | --- | --- | --- | --- | --- | --- | --- |
| 104% | 3.13 ± 0.24 µM | 1.63±0.09 | 91% | 4.41 ± 0.15 µM | 2.70±0.20 | – | – | Cc1cc(NC(=O)Nc2cc(Br)cs2)n(-c2ccccc2)n1 [GAT1502, 1-(4-bromothiophen-2-yl)-3-(3-methyl-1-phenyl-1H-pyrazol-5-yl)urea] | much poorer activators | much poorer activators | – |
| – | – | – | – | – | – | – | – | Cc1cc(NC(=O)N/C=C/c2ccccc2)n(-c2ccccc2)n1 [GAT1537] | – | – | modulation of GIRK1/4 channels (in words) [1]: little or no effect |
| – | – | – | – | – | – | – | – | Cc1cc(NC(=O)Nc2sccc2Br)n(-c2ccccc2)n1 [GAT1570, 1-(3-bromothiophen-2-yl)-3-(3-methyl-1-phenyl-1H-pyrazol-5-yl)urea] | much poorer activators; also recorded: negligible | much poorer activators; also recorded: negligible | – |
| – | – | – | 96% | 4.05 ± 0.14 µM | 2.797±0.18 | retained some selectivity | less potent than GAT1508 for GIRK1/2 | Cc1cc(NC(=O)Nc2ccc(Cl)s2)n(-c2ccccc2)n1 [GAT1501, 1-(5-chlorothiophen-2-yl)-3-(3-methyl-1-phenyl-1H-pyrazol-5-yl)urea] | did not show activation of GIRK1/4 at concentrations less than 20 μM; also recorded: negligible | – | – |
| – | – | – | – | – | – | – | – | Cc1cc(NC(=O)Nc2ccc(I)s2)n(-c2ccccc2)n1 [GAT1574, 1-(5-iodothiophen-2-yl)-3-(3-methyl-1-phenyl-1H-pyrazol-5-yl)urea] | poorer activator than the bromine analog; also recorded: negligible | poorer activator than the bromine analog; also recorded: negligible | – |
| – | – | – | – | – | – | lack of specificity | – | Cc1cc(NC(=O)Nc2cnc(Br)s2)n(-c2ccccc2)n1 [GAT1530, 1-(2-bromothiazol-5-yl)-3-(3-methyl-1-phenyl-1H-pyrazol-5-yl)urea] | – | – | – |
| – | – | – | – | – | – | – | – | NCC(CC(=O)O)c1ccc(Cl)cc1 (stereo not drawn) [baclofen, reference compound] | – | – | current response of BLA neurons (in words) [3]: induced a significant outward current |
| – | – | – | – | – | – | – | – | Cc1nn(-c2ccccc2)c(NC(=O)Nc2ccc(F)c(F)c2)c1Br [GAT1528] | – | – | modulation of GIRK1/4 channels (in words) [1]: selective for GIRK1/4 inhibition against GIRK1/2 channel activity; modulation of GIRK1/2 channels (in words) ([2]; Examples 5 and 6, Xenopus oocytes): no effect on basal activity |
| 157% | 7.02 ± 0.24 µM | 1.95±0.21 | 155% | 17.1 ± 0.28 µM | 3.9±1.04 | lacked selectivity | less potent than GAT1508 | Cc1cc(NC(=O)Nc2cccs2)n(-c2ccccc2)n1 [GAT1506, 1-(3-methyl-1-phenyl-1H-pyrazol-5-yl)-3-(thiophen-2-yl)urea] | – | – | – |

| SMILES | Emax [1] | EC50 [1] | EMAX at GIRK1/4 [1] | Emax [2] | EC50 [2] | EMAX at GIRK1/2 [2] | selectivity for GIRK1/2 over GIRK1/4 (in words) [2] | potency/efficacy compared to GAT1508 (in words) [2] | activation of GIRK1/4 (in words) [1] | activation of GIRK1/2 (in words) [2] | further results |
| --- | --- | --- | --- | --- | --- | --- | --- | --- | --- | --- | --- |
| Cc1cc(NC(=O)Nc2ccc(F)s2)n(-c2ccccc2)n1 [GAT1575, 1-(5-fluorothiophen-2-yl)-3-(3-methyl-1-phenyl-1H-pyrazol-5-yl)urea] | 192% | 11.2 ± 0.25 µM | 2.16±0.32 | 210% | 9.39 ± 0.12 µM | 4.92±0.49 | less selective between GIRK1/2 and GIRK1/4 than GAT1508 | highly efficacious but much less potent than GAT1508 | – | – | – |
